How the values were obtained:
[1] = target: human orexin-1 receptor (hOX1R) (Homo sapiens, UniProt O43613); assay: FLIPR Ca2+ Flux Assay, hOX1R; assay type: cell-based; conditions: CHO cells expressing hOX1R; agonist 70 pM Ala-6,12 orexin-A
Description: (§1) Chinese hamster ovary (CHO) cells expressing the human orexin-1 receptor (hOX1R) or the human orexin-2 receptor (hOX2R) were grown in Iscove's modified DMEM containing 2 mM L-glutamine, […], 1% hypoxanthine-thymidine supplement, 100 U/ml penicillin, 100 μg/ml streptomycin and 10% heat-inactivated fetal calf serum (FCS). The cells were seeded at 20,000 cells/well into Becton-Dickinson black 384-well clear bottom sterile plates coated with poly-D-lysine. All reagents were from GIBCO-Invitrogen Corp. The seeded plates were incubated overnight at 37° C. and 5% CO2. Ala-6,12 human orexin-A, used as the agonist, was prepared as a 1 mM stock solution in 1% bovine serum albumin (BSA) and diluted in assay buffer (HBSS containing 20 mM HEPES, 0.1% BSA and 2.5 mM probenecid, pH7.4) for use in the assay at a final concentration of 70 pM. Test compounds were prepared as 10 mM stock solution in DMSO, then diluted in 384-well plates, first in DMSO, then assay buffer.
On the day of the assay, cells were washed 3× with 100 μl assay buffer and then incubated for 60 minutes (37° C., 5% CO2) in 60 μl assay buffer containing 1 μM Fluo-4AM ester, 0.02% pluronic acid, and 1% BSA. The dye loading solution was then aspirated and cells were washed 3× with 100 μl assay buffer. 30 μl of that same buffer was left in each well. Within the Fluorescent Imaging Plate Reader (FLIPR, Molecular Devices), test compounds were added to the plate in a volume of 25 μl, incubated for 5 minutes, and then 25 μl of agonist was added. Fluorescence was measured for each well at 1 second intervals for 5 minutes, and the height of each fluorescence peak was compared to the height of the fluorescence peak induced by 70 pM of Ala-6,12 orexin-A with buffer in place of test compound.

[2] = target: human orexin-2 receptor (hOX2R) (Homo sapiens (Human), UniProt O43614); assay: FLIPR Ca2+ Flux Assay, hOX2R; assay type: cell-based; conditions: CHO cells expressing hOX2R; agonist 70 pM Ala-6,12 orexin-A
Description: In a typical experiment the OX1 and OX2 receptor antagonistic activity of the compounds of the present invention was determined in accordance with the following experimental method. For intracellular calcium measurements, Chinese hamster ovary (CHO) cells expressing the rat orexin-1 receptor or the human orexin-2 receptor, are grown in Iscove's modified DMEM containing 2 mM L-glutamine, […], 1% hypoxanthine-thymidine supplement, 100 U/ml penicillin, 100 μg/ml streptomycin and 10% heat-inactivated fetal calf serum (FCS). The cells are seeded at 20,000 cells/well into Becton-Dickinson black 384-well clear bottom sterile plates coated with poly-D-lysine. All reagents were from GIBCO-Invitrogen Corp. The seeded plates are incubated overnight at 37° C. and 5% CO2. Ala-6,12 human orexin-A as the agonist is prepared as a 1 mM stock solution in 1% bovine serum albumin (BSA) and diluted in assay buffer (HBSS containing 20 mM HEPES, 0.1% BSA and 2.5 mM probenecid, pH7.4) for use in the assay at a final concentration of 70 pM. Test compounds are prepared as 10 mM stock solution in DMSO, then diluted in 384-well plates, first in DMSO, then assay buffer. On the day of the assay, cells are washed 3 times with 100 μl assay buffer and then incubated for 60 min (37° C., 5% CO2) in 60 μl assay buffer containing 1 μM Fluo-4AM ester, 0.02% pluronic acid, and 1% BSA. The dye loading solution is then aspirated and cells are washed 3 times with 100 μl assay buffer. 30 μl of that same buffer is left in each well. Within the Fluorescent Imaging Plate Reader (FLIPR, Molecular Devices), test compounds are added to the plate in a volume of 25 μl, incubated for 5 min and finally 25 μl of agonist is added. Fluorescence is measured for each well at 1 second intervals for 5 minutes and the height of each fluorescence peak is compared to the height of the fluorescence peak induced by 70 pM Ala-6,12 orexin-A with buffer in place of antagonist. […] Alternatively, compound potency can be assessed by a radioligand binding assay (described in Bergman et. al. Bioorg. Med. Chem. Lett. 2008, 18, 1425-1430) in which the inhibition constant (Ki) is determined in membranes prepared from CHO cells expressing either the OX1 or OX2 receptor. The intrinsic orexin receptor antagonist activity of a compound which may be used in the present invention may be determined by these assays.
as §1
On the day of the assay, cells were washed 3× with 100 μl assay buffer and then incubated for 60 minutes (37° C., 5% CO2) in 60 μl assay buffer containing 1 μM Fluo-4AM ester, 0.02% pluronic acid, and 1% BSA. The dye loading solution was then aspirated and cells were washed 3× with 100 μl assay buffer.

human orexin-2 receptor (hOX2R), sequence (O43614 whole entry): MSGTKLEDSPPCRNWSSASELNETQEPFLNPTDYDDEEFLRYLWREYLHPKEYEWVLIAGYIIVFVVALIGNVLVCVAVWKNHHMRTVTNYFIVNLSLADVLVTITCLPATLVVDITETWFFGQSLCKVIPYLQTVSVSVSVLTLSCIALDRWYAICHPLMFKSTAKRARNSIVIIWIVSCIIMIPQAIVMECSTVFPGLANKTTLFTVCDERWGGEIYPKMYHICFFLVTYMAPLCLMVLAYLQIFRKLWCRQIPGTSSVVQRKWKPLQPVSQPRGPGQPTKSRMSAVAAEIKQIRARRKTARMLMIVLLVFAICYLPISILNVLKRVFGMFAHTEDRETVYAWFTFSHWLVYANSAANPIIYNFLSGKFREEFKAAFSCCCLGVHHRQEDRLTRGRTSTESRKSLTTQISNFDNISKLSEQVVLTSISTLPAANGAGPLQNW

| Molecule | IC50 [1] [nM] | IC50 [2] [nM] |
| --- | --- | --- |
| C[C@@H]1CC[C@@H](Oc2cccc3c2CC[C@@H]3O)CN1C(=O)c1ccccc1-n1nccn1 [Example 26, (1S)-4-{[(3R,6R)-6-Methyl-1-{[2-(2H-1,2,3-triazol-2-yl)phenyl]carbonyl}piperidin-3-yl]oxy}-2,3-dihydro-1H-inden-1-ol] | 1530 | 25 |
| C[C@@H]1CC[C@@H](Oc2cccc(C(C)(O)C(F)(F)F)c2)CN1C(=O)c1ccccc1-n1nccn1 (stereo partly drawn) [Example 5, 1,1,1-Trifluoro-2-(3-{[(3R,6R)-6-methyl-1-{[2-(2H-1,2,3-triazol-2-yl)phenyl]carbonyl}piperidin-3-yl]oxy}phenyl)propan-2-ol] | 5540 | 89 |
| (1S)-1-Methyl-6-{[(3R,6R)-6-methyl-1-{[2-(2H-1,2,3-triazol-2-yl)phenyl]carbonyl}piperidin-3-yl]oxy}-2,3-dihydro-1H-inden-1-ol [Example 35] | 3350 | 164 |
| C[C@@H]1CC[C@@H](Oc2cccc3c2CC[C@H]3O)CN1C(=O)c1ccccc1-n1nccn1 [Example 25, (1R)-4-{[(3R,6R)-6-Methyl-1-{[2-(2H-1,2,3-triazol-2-yl)phenyl]carbonyl}piperidin-3-yl]oxy}-2,3-dihydro-1H-inden-1-ol] | 7200 | 238 |
| C[C@@H]1CC[C@@H](Oc2nccc(C(C)(C)O)c2F)CN1C(=O)c1ccccc1-n1nccn1 [Example 21, 2-(3-Fluoro-2-{[(3R,6R)-6-methyl-1-{[2-(2H-1,2,3-triazol-2-yl)phenyl]carbonyl}piperidin-3-yl]oxy}pyridin-4-yl)propan-2-ol] | 259 | 6 |
| C[C@@H]1CC[C@@H](Oc2cccc3c2CCC[C@@]3(C)O)CN1C(=O)c1ccccc1-n1nccn1 [Example 29, (1R)-1-Methyl-5-{[(3R,6R)-6-methyl-1-{[2-(2H-1,2,3-triazol-2-yl)phenyl]carbonyl}piperidin-3-yl]oxy}-1,2,3,4-tetrahydronaphthalen-1-ol] | 10000 | 123 |
| CCC(C)(O)c1ccnc(O[C@@H]2CC[C@@H](C)N(C(=O)c3ccccc3-n3nccn3)C2)c1 (stereo partly drawn) [Example 9, 2-(2-{[(3R,6R)-6-Methyl-1-{[2-(2H-1,2,3-triazol-2-yl)phenyl]carbonyl}piperidin-3-yl]oxy}pyridin-4-yl)butan-2-ol] | 436 | 14 |
| C[C@@H]1CC[C@@H](Oc2ccc3c(c2)C(C)(O)CC3)CN1C(=O)c1ccccc1-n1nccn1 (stereo partly drawn) [Example 33, 1-Methyl-6-{[(3R,6R)-6-methyl-1-{[2-(2H-1,2,3-triazol-2-yl)phenyl]carbonyl}piperidin-3-yl]oxy}-2,3-dihydro-1H-inden-1-ol] | 742 | 23 |
| C[C@@H]1CC[C@@H](Oc2cccc(C(C)(C)O)c2)CN1C(=O)c1ccccc1-n1nccn1 [Example 6, 2-(3-{[(3R,6R)-6-Methyl-1-{[2-(2H-1,2,3-triazol-2-yl)phenyl]carbonyl}piperidin-3-yl]oxy}phenyl)propan-2-ol] | 10000 | 32 |
| C[C@@H]1CC[C@@H](Oc2cc([C@@](C)(O)C3CC3)ccn2)CN1C(=O)c1ccccc1-n1nccn1 [Example 12, (1S)-1-cyclopropyl-1-(2-{[(3R,6R)-6-methyl-1-{[2-(2H-1,2,3-triazol-2-yl)phenyl]carbonyl}piperidin-3-yl]oxy}pyridin-4-yl)ethanol] | 241 | 13 |
| CC(O)c1cccc(O[C@@H]2CC[C@@H](C)N(C(=O)c3ccccc3-c3ncccn3)C2)c1 (stereo partly drawn) [Example 3, 1-[3-({(3R,6R)-6-Methyl-1-[(2-pyrimidin-2-ylphenyl)carbonyl]piperidin-3-yl}oxy)phenyl]ethanol] | 4240 | 119 |
| CCC(C)(O)c1cccc(O[C@@H]2CC[C@@H](C)N(C(=O)c3ccccc3-n3nccn3)C2)c1 (stereo partly drawn) [Example 18, 2-(3-{[(3R,6R)-6-Methyl-1-{[2-(2H-1,2,3-triazol-2-yl)phenyl]carbonyl}piperidin-3-yl]oxy}phenyl)butan-2-ol] | 827 | 24 |
| (1R)-1-Methyl-6-{[(3R,6R)-6-methyl-1-{[2-(2H-1,2,3-triazol-2-yl)phenyl]carbonyl}piperidin-3-yl]oxy}-2,3-dihydro-1H-inden-1-ol [Example 34] | 1170 | 112 |
| C[C@@H]1CC[C@@H](Oc2cccc(C(C)(O)C3CCC3)c2)CN1C(=O)c1ccccc1-n1nccn1 (stereo partly drawn) [Example 17, 1-Cyclobutyl-1-(3-{[(3R,6R)-6-methyl-1-{[2-(2H-1,2,3-triazol-2-yl)phenyl]carbonyl}piperidin-3-yl]oxy}phenyl)ethanol] | 8690 | 82 |
| C[C@@H]1CC[C@@H](Oc2cc([C@](C)(O)C3CC3)ccn2)CN1C(=O)c1ccccc1-n1nccn1 [Example 11, (1R)-1-cyclopropyl-1-(2-{[(3R,6R)-6-methyl-1-{[2-(2H-1,2,3-triazol-2-yl)phenyl]carbonyl}piperidin-3-yl]oxy}pyridin-4-yl)ethanol] | 297 | 14 |
